From PMC3471820, “The CoxD Protein, a Novel AAA+ ATPase Involved in Metal Cluster Assembly: Hydrolysis of Nucleotide-Triphosphates and Oligomerization” (PLoS ONE, 2012) come the findings set out here.

Data set [1] concerns the target T1, CoxD (Afipia carboxidovorans, UniProt Q51326).
T1 construct: mainly hexamer, also dimer and tetramer (homo-oligomer)
T1 sequence (Q51326 1-295): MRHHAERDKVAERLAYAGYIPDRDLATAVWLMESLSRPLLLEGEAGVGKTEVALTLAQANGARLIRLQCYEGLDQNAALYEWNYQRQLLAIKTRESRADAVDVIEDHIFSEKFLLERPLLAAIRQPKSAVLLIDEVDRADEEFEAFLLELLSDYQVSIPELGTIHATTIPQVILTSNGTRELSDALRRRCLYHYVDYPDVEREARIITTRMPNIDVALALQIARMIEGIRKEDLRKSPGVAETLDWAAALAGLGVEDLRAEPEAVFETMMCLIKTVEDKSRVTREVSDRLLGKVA
Description: inhibition of ATP hydrolysis, ADP release. Format: biochemical. As to conditions: 100 mM Tris/acetate pH 8.0, 1 mM Mg-acetate, 25 °C; refolded enzyme; 1 mM ATP; competes with ATP; slowly hydrolysable analogue.

Data set [2] deals with T1, CoxD. Briefly: GTP hydrolysis, inorganic phosphate release. It is filed as biochemical. Conditions: 100 mM Tris/acetate pH 8.0, 1 mM Na2GTP, 1 mM Mg-acetate, 25 °C; weak side activity.
Substrate in the data set “purified protein”: Nc1ncnc2c1ncn2[C@@H]1O[C@H](COP(=O)(O)OP(=O)(O)OP(=O)(O)O)[C@@H](O)[C@H]1O
Description: purified protein. As to conditions: 100 mM Tris/acetate pH 8.0, 1 mM Mg-acetate, 25 °C, refolded enzyme.

What is called Km is the concentration of substrate that gives half-maximal velocity.

As for `Nc1ncnc2c1ncn2[C@@H]1O[C@H](COP(=O)(O)OP(=O)(O)OP(O)(O)=S)[C@@H](O)[C@H]1O` [ATP-γ-S], at CoxD [1], the “inhibition of ATP hydrolysis (qualitative)” value is “It very effectively competed with ATP for CoxD”.
For `Nc1nc2c(ncn2[C@@H]2O[C@H](COP(=O)(O)OP(=O)(O)OP(=O)(O)O)[C@@H](O)[C@H]2O)c(=O)[nH]1` [GTP], the “GTP hydrolysis, inorganic phosphate release” value at CoxD [2] is recorded as “formed from GTP”.

B1: CoxD (Afipia carboxidovorans OM5) (protein)
chain: MRHHAERDKVAERLAYAGYIPDRDLATAVWLMESLSRPLLLEGEAGVGKTEVALTLAQANGARLIRLQCYEGLDQNAALYEWNYQRQLLAIKTRESRADAVDVIEDHIFSEKFLLERPLLAAIRQPKSAVLLIDEVDRADEEFEAFLLELLSDYQVSIPELGTIHATTIPQVILTSNGTRELSDALRRRCLYHYVDYPDVEREARIITTRMPNIDVALALQIARMIEGIRKEDLRKSPGVAETLDWAAALAGLGVEDLRAEPEAVFETMMCLIKTVEDKSRVTREVSDRLLGKVA
For the molecule B1, the Km in the data set “purified protein” came to 690 ± 140 µM.
